According to US11969397B2, “Composition for preventing and treating transplant rejection or transplant rejection diseases, comprising novel compound and calcineurin inhibitor” (THE CATHOLIC UNIVERSITY OF KOREA INDUSTRY-ACADEMIC …, priority 2018, dated 2024):

Assays:
[1] = test system: allogenic T cells; assay: T cell proliferation in in vitro allogenic transplantation model (mouse cells); format: cell-based; conditions: cultured 4 days; for T cell proliferation (3H-thymidine incorporation, FIG. 1): SD282 alone 250 μM or more, FK506 alone 1 and 5 nM, combination FK506 1 and 5 nM + SD282 250 μM; for T cell proliferation (flow cytometry, FIG. 2): SD282 alone, FK506 alone or combination
Protocol: (§1) CD4+ T cells derived from a normal recipient (Balb/c, responder) (2×10^5 cells) were injected into each well of a 96-well round bottom plate, in vitro. Thereafter, for syngenic transplantation, normal recipient-derived T cell-removed splenocytes (2×10^5 cells), which had been irradiated with radiation, were added to each of the wells, followed by culturing under mixing. For allogenic transplantation, donor (C57BL/6, stimulator)-derived T cell-removed splenocytes were added to each of the wells, followed by culturing under mixing.
In order to evaluate T cell proliferations according to the treatment with SD282 alone, FK506 alone or in combination thereof, the untreated syngenic group and the untreated allogenic group of Example 1-1 were used as controls. The allogenic model was treated with 50, 250 and 500 μM of SD282 alone or 1 and 5 nM of FK506 alone. And, FK506 (1 and 5 nM) and SD282 (250 μM) were treated in combination, respectively. After the treatments, each group was cultured for 4 days and then alloresponses were evaluated by observing the T cell proliferations of the cultured cells, according to the 3H-thymidine incorporation method, the CFSE assay method, or the flow cytometry method.
In addition, in order to evaluate the synergistic effect according to the treatment of SD282 and FK506 in combination, the Combination Index (CI) value (drug treatment) was calculated. The CI value was obtained by the following equation. A value of 1 or less means that there is a synergistic effect between the combination of two drugs, and a value of 1 or more means that there is an antagonistic effect between the combination of two drugs.

[2] = test system: pathogenic Th17 cells; assay: Inhibition of pathogenic Th17 cells / IL-17 in in vitro allogenic model (mouse cells); format: cell-based; conditions: 4 days, anti-CD3 0.1 μg/ml, SD282 50, 250, 500 μM, FK506 1, 5 nM, combination FK506 1, 5 nM + SD282 250 μM
Protocol: as §1
The T cell response regulates the activity of Th17 (T helper 17 cell)/IL-17 (Interleukin 17) and IL-17 is classified as an inflammatory cytokine. […] We also evaluated inhibitory activity against inflammatory cytokines according to the treatments with SD282 and FK506 alone or in combination. The untreated syngenic group and the untreated allogenic group of Example 1-1 were used as controls. The allogenic models were treated with 50, 250 and 500 μM of SD282 alone or 1 and 5 nM of FK506 alone. And, FK506 (1 and 5 nM) and SD282 (250 μM) were treated in combination, respectively. After the treatments, each group was cultured for 4 days and then stimulated with anti-CD3 (0.1 μg/ml). The inhibitory efficacy against IL-17+CD4+ T cells and IL-17 was evaluated by analyzing the cultured Th17 cells according to the ELISA method; and the proliferation of Fox3+ Treg cells was evaluated through the analysis of Treg cells.

[3] = test system: Foxp3 Treg cells; assay: Treg activity under Th17 differentiation condition in in vitro allogenic model (mouse cells); format: cell-based; conditions: 4 days, SD282 20 and 500 μM, FK506 1 and 5 nM, combination FK506 1, 5 nM + SD282 250 μM
Protocol: as §1
The allogenic models of Example 1-1 were treated with 20 and 500 μM of SD282 alone or 1 and 5 nM of FK506 alone. And, FK506 (1 and 5 nM) and SD282 (250 μM) were treated in combination, respectively. The isolated T cells were cultured for 4 days under the condition of Th17 cell differentiation so as to induce the differentiation to Th17 cells.

[4] = test system: allogenic T cells (normal human PBMCs); assay: T cell proliferation in normal human PBMCs (MLR, CFSE); format: cell-based; set-up: T cell proliferation (FIG. 13a): dose or concentration left out as unconfirmed; conditions: for proliferation of allogenic T cells (FIG. 13b): 4 days, FK506 1 and 5 nM, SD282 alone, combination FK506 1, 5 nM + SD282 250 μM
Protocol: In order to evaluate the T cell proliferations according to the treatment with SD282 alone, FK506 alone, or in combination thereof in normal human PBMCs (peripheral blood mononuclear cells, PBMCs), mixed leukocyte reaction (MLR) and CFSE (carboxyfluorescein succinimidyl ester) staining were performed. An untreated syngenic group and an untreated allogenic group were used as controls. […] And, FK506 (1 and 5 nM) and SD282 (250 μM) were treated in combination, respectively. After the treatments, each group was cultured for 4 days and then alloresponses were evaluated by observing the T cell proliferations of the cultured cells, according to the 3H-thymidine incorporation method or the flow cytometry method.

[5] = test system: PBMCs of a liver-transplanted patient; assay: Microarray / KEGG pathway and gene regulation in PBMCs of a liver-transplanted patient; format: cell-based, human; conditions: CD3 stimulation, 48 hours, SD282 250 μM
Protocol: In order to investigate changes in the signal factors related to immune cell modulation according to drug treatments in the peripheral blood cells (PBMCs) of a liver-transplanted patient, the PBMCs were treated with 250 μM of SD282 alone, 5 nM of FK506 alone, and the combination thereof, under the condition of TCR stimulation (under the CD3 stimulation). After culturing for 48 hours, the microarray analyses thereof were carried out by Macrogen, Inc.

[6] = test system: IL-17, IFN-γ and TNF-α; assay: Inflammatory cytokines in normal human PBMCs under allo-response (ELISA); format: cell-based; conditions: allogenic, 4 days, compared to the group treated with FK506 alone
Protocol: In order to evaluate the inhibitions against the activities of inflammatory cytokines according to the treatment with SD282 alone, FK506 alone, or in combination thereof in normal human peripheral blood cells (PBMCs), an untreated syngenic group and an untreated allogenic group were used as controls. Allogenic models were treated with 5, 250 and 500 μM of SD282 alone or 1 and 5 nM of FK506 alone. And, 1 and 5 nM of FK506 and 250 μM SD282 were treated in combination, respectively. After the treatments, each group was cultured for 4 days and then the inhibitory effects against IL-17, IFN-γ and TNF-α in the cultured cells was evaluated according to the ELISA method, so as to evaluate alloresponses.

Compound | T cell proliferation (3H-thymidine incorporation, FIG. 1) [1] | T cell proliferation (flow cytometry, FIG. 2) [1] | IL-17+CD4+ T cells (%) / proliferation of pathogenic Th17 cells [2] | activity of the inflammatory cytokine IL-17 (ELISA) [2] | IL-17+CD4+ T cells (%) / proliferation of pathogenic Th17 cells ([2]; listed as Fk506) | activity of the inflammatory cytokine IL-17 (ELISA) ([2]; listed as Fk506) | proliferation of Treg cells (Foxp3, flow cytometry) [3] | proliferation of Treg cells (Foxp3, flow cytometry) ([3]; listed as Fk506) | proliferation of allogenic T cells (FIG. 13b) [4] | various pathways increased in a liver-transplanted patient (KEGG) [5] | activity of IFN-γ (ELISA) [6] | activity of IL-17 (ELISA) [6] | activity of TNF-α (ELISA) [6] | T cell proliferation (FIG. 13a) ([4]; 4 days, or more of SD282 alone, compared to control group)
C=CC[C@@H]1/C=C(\C)C[C@H](C)C[C@H](OC)[C@H]2O[C@@](O)(C(=O)C(=O)N3CCCC[C@H]3C(=O)O[C@H](/C(C)=C/[C@@H]3CC[C@@H](O)[C@H](OC)C3)[C@H](C)[C@@H](O)CC1=O)[C@H](C)C[C@@H]2OC [FK506, tacrolimus] | not effective | inhibited | did not effectively inhibit | did not effectively inhibit | inhibited | inhibited | did not increase | significantly increased | not effective |  |  |  |  | 
CCN(C(=N)NC(=N)N)c1ccc(F)cc1 [SD282] | significantly inhibited | inhibited | inhibited | inhibited |  |  | significantly increased |  | significantly inhibited | inhibited | more significantly inhibited | more significantly inhibited | more significantly inhibited | inhibited
